# From PMC6615261, “Repurposing Azithromycin and Rifampicin Against Gram-Negative Pathogens by Combination With Peptidomimetics” (Frontiers in Cellular and Infection Microbiology, 2019)
# Columns and labels:
# [1] = system: P. aeruginosa clinical isolates and reference strains; assay: MIC of fixed-ratio peptidomimetic 1-antibiotic combinations in clinical isolates and reference strains; type: cell-based, Pseudomonas aeruginosa; conditions: with 1–8 μM of 1
# From the text: (§1) Bacterial strains used in this study comprise MDR clinical isolates of E. coli ST131 (Cerquetti et al., [2010]) and K. pneumoniae ST258 (Jana et al., [2017]), and American type culture collection (ATCC) strains: ATCC 25922 (E. coli), ATCC 13883 (K. pneumoniae), and ATCC 27853 (P. aeruginosa). Additional clinical isolates of E. coli, K. pneumoniae, and P. aeruginosa resistant to β-lactams (including carbapenems and cephalosporins) were provided by Laurent Poirel, Université de Fribourg, Switzerland. The following growth media was routinely used for bacterial culturing: Luria-Burtani (LB), cation-adjusted Mueller-Hinton agar (MHA) and broth (MHB II). All assays were performed in cation-adjusted MHA or MHB II. Antibiotics were purchased from Sigma-Aldrich and the peptidomimetic collection (Table S1) was curated and provided by Henrik Franzyk. […]
# (§2) Minimal inhibitory concentrations (MICs) of peptidomimetics, antibiotics and their combinations were determined by broth microdilution according to the Clinical Laboratory Standards Institute performance standards (Clinical and Laboratory Standards Institute, [2013]). […] Potentiation of additional antibiotics by peptidomimetics was determined by using commercial 96-well plates containing varied concentrations of standard antibiotics (COMPAN1F; Trek Diagnostic Systems Inc.). The peptidomimetics were added immediately prior to inoculation with pathogen, and then MICs were determined as above. The MICs of peptidomimetic/antibiotic combinations were determined according to the method above, and the concentration ratios were selected based upon checkerboard results with 2:1 and 1:4 ratio of peptidomimetic with rifampicin or azithromycin, respectively. Minimal bactericidal concentrations (MBCs) were determined by using growth-curve assay plates. […] Growth was recorded at 10 min intervals as optical density (OD) at 600 nm during 24 h. […]
# [2] = system: P. aeruginosa ATTC 27853; conditions: P. aeruginosa ATTC 27853; growth-curve assay
# Experimental: (§3) Minimal inhibitory concentrations (MICs) of peptidomimetics, antibiotics and their combinations were determined by broth microdilution according to the Clinical Laboratory Standards Institute performance standards (Clinical and Laboratory Standards Institute, [2013]). […] Since rifampicin and azithromycin mainly are used to treat infections with Gram-positive pathogens only CLSI clinical breakpoints were available for such bacteria. […] Potentiation of additional antibiotics by peptidomimetics was determined by using commercial 96-well plates containing varied concentrations of standard antibiotics (COMPAN1F; Trek Diagnostic Systems Inc.). The peptidomimetics were added immediately prior to inoculation with pathogen, and then MICs were determined as above. The MICs of peptidomimetic/antibiotic combinations were determined according to the method above, and the concentration ratios were selected based upon checkerboard results with 2:1 and 1:4 ratio of peptidomimetic with rifampicin or azithromycin, respectively. Minimal bactericidal concentrations (MBCs) were determined by using growth-curve assay plates. MIC plates were prepared as above, and then the plates were incubated at 37°C with continuous shaking. Growth was recorded at 10 min intervals as optical density (OD) at 600 nm during 24 h. At 24 h, for wells without growth, a sample was diluted 10-fold in sterile saline (0.9% sodium chloride) and plated onto MHA, following CLSI guidelines (Clinical and Laboratory Standards Institute, [1999]).
# [3] = system: K. pneumoniae ST258; conditions: K. pneumoniae ST258; growth-curve assay
# Experimental: as §3
# [4] = system: E. coli ST131; conditions: E. coli ST131; growth-curve assay
# Experimental: as §3
# [5] = system: P. aeruginosa ATCC 27853; conditions: P. aeruginosa ATCC 27853; checkerboard
# Experimental: (§4) The potential synergistic effects in peptidomimetic-antibiotic combinations were assessed by using a two-dimensional checkerboard assay (Garcia, [2010]). Briefly, twofold dilutions of peptide and antibiotic were prepared in MBH II media along the X- and Y-axis, respectively, in 96-well plates. The inoculum was added to the plates, and subsequently these were incubated for 18–20 h. All steps for inoculum preparation and broth microdilution were in accordance with the CLSI guidelines (Clinical and Laboratory Standards Institute, [2013]). The fractional inhibitory concentration index (FICI) was calculated as [MICA(A+B)/MICA(alone)] + [MICB(A+B)/MICB(alone)], where MICA(A+B) represents the MIC of antibiotic (A) in combination with peptidomimetic (B), while MICB(A+B) represents the MIC of peptidomimetic (B) in combination with antibiotic (A). MICA(alone) and MICB(alone) represent the MIC of each compound individually. FICI values of ≤0.5 were interpreted as synergy.
# [6] = system: K. pneumoniae ST258; conditions: checkerboard
# Experimental: as §4
# [7] = system: E. coli ST131; conditions: checkerboard
# Experimental: as §4
# [8] = system: E. coli clinical isolates and reference strains; assay: MIC of fixed-ratio peptidomimetic 1-antibiotic combinations in clinical isolates and reference strains; type: cell-based, Escherichia coli; conditions: in combination with 0.5–1 μM peptidomimetic 1
# From the text: as §1, §2
# [9] = system: E. coli ST131; assay: Potentiation of additional antibiotics (COMPAN1F plates), MIC; type: cell-based, Escherichia coli
# Outline: (§5)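 MICs of peptidomimetics, antibiotics and their combinations were measured by CLSI broth microdilution. Combination ratios came from checkerboard results: peptidomimetic to rifampicin 2:1, to azithromycin 1:4. For potentiation, peptidomimetic was added to preformed antibiotic-gradient panels just before inoculation.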
# [10] = system: K. pneumoniae ST258; assay: as above; type: cell-based, Klebsiella pneumoniae
# Outline: as §5
SMILES,"MIC of antibiotic in combination, P. aeruginosa isolates (typical) [1] [mg/L]",MBC (antibiotic alone) [2] [mg/L],MIC (antibiotic alone) [2] [mg/L],MBC (antibiotic alone) [3] [mg/L],MIC (antibiotic alone) [3] [mg/L],MBC (antibiotic alone) [4] [mg/L],MIC (antibiotic alone) [4] [mg/L],Antibiotic MIC alone [5] [mg/L],Antibiotic MIC alone [6] [mg/L],Antibiotic MIC alone [7] [mg/L],Antibiotic concentration to which most E. coli isolates proved susceptible in combination [8] [µg/mL],other results
"CC[C@H]1OC(=O)[C@H](C)[C@@H](O[C@H]2C[C@@](C)(OC)[C@@H](O)[C@H](C)O2)[C@H](C)[C@@H](O[C@@H]2O[C@H](C)C[C@H](N(C)C)[C@H]2O)[C@](C)(O)C[C@@H](C)CN(C)[C@H](C)[C@@H](O)[C@]1(C)O [Azithromycin, azithromycin]",4 to 8,>128,>128,>32,>32,>16,8,>128,32,8,2 to 4,
"CO[C@H]1/C=C/O[C@@]2(C)Oc3c(C)c(O)c4c(O)c(c(/C=N/N5CCN(C)CC5)c(O)c4c3C2=O)NC(=O)/C(C)=C\C=C\[C@H](C)[C@H](O)[C@@H](C)[C@@H](O)[C@@H](C)[C@H](OC(C)=O)[C@@H]1C [Rifampicin, rifampicin]",0.5,>64,>64,>16,>16,>4,>4,32,16,4,0.25 to 0.5,"MIC of antibiotic in presence of peptidomimetic 26 ([9]; + 0.25 μM peptidomimetic 26): ≤1 mg/L; MIC of antibiotic in presence of peptidomimetic 26 ([9]; + 0.25 μM peptidomimetic 26, listed as rifampicin): below 1 μg/mL; MIC of antibiotic in presence of peptidomimetic 1 ([9]; + 0.5 μM peptidomimetic 1): ≤1 mg/L; MIC of antibiotic in presence of peptidomimetic 1 ([9]; + 0.5 μM peptidomimetic 1, listed as rifampicin): below 1 μg/mL; MIC of antibiotic in presence of peptidomimetic 15 ([9]; + 0.5 μM peptidomimetic 15): ≤1 mg/L; MIC of antibiotic in presence of peptidomimetic 15 ([9]; + 0.5 μM peptidomimetic 15, listed as rifampicin): below 1 μg/mL; MIC ([9]; Escherichia coli, no peptidomimetic, read-out: MIC of antibiotic alone): > 2 mg/L; MIC of antibiotic alone ([9]; no peptidomimetic): >2 mg/L; MIC of antibiotic in presence of peptidomimetic 1 ([10]; + 1 μM peptidomimetic 1): ≤1 mg/L; MIC of antibiotic in presence of peptidomimetic 1 ([10]; + 1 μM peptidomimetic 1, listed as rifampicin): below 1 μg/mL; MIC of antibiotic in presence of peptidomimetic 15 ([10]; + 1 μM peptidomimetic 15): ≤1 mg/L; MIC of antibiotic in presence of peptidomimetic 15 ([10]; + 1 μM peptidomimetic 15, listed as rifampicin): below 1 μg/mL; MIC of antibiotic in presence of peptidomimetic 26 ([10]; + 1 μM peptidomimetic 26): ≤1 mg/L; MIC of antibiotic in presence of peptidomimetic 26 ([10]; + 1 μM peptidomimetic 26, listed as rifampicin): below 1 μg/mL; MIC ([10]; Klebsiella pneumoniae, no peptidomimetic, read-out: MIC of antibiotic alone): > 2 mg/L; MIC of antibiotic alone ([10]; no peptidomimetic): >2 mg/L"
